# Columns and labels:
# [1] = system: Enterovirus A71; assay: microbe, parasite or virus in culture; assay type: functional, organism-based, Tainin/4643/98, Vero 76; details: Enterovirus A, Tainin/4643/98, Vero 76, 72 h
# [2] = system: Vero 76; assay: Cytotoxicity against monkey Vero 76 cells by neutral red uptake assay; assay type: cell-based; details: chlorocebus sabaeus, vero 76
# [3] = system: Enterovirus A71; assay: microbe, parasite or virus in culture; assay type: functional, organism-based; details: Enterovirus A, Tainin/4643/98, Vero 76, 72 h
# [4] = system: Vero 76; assay: Cytotoxicity against monkey Vero 76 cells by microscopic analysis; assay type: cell-based; details: chlorocebus sabaeus, vero 76
# [5] = in vitro; details: monkey, Vero 76 cells
# [6] = in vitro; details: monkey, Vero 76 cells; remark: listed apart in the source
Structure (SMILES),EC50 [1] [µM],CC50 [2] [µM],EC50 [3] [µM],CC50 [4] [µM],selectivity ratio [5],selectivity ratio [6]
NNc1nc(NC(C2CC2)C2CC2)c2ncn([C@H]3[C@H](O)[C@H](O)[C@@H]4C[C@@H]43)c2n1,> 50,50,> 50,> 50,,
CC(C)[C@@H](Nc1nc(Cl)nc2c1ncn2[C@H]1[C@H](O)[C@H](O)[C@@H]2C[C@@H]21)C1CC1,16,> 50,12,> 50,> 4.2,> 3.1
CC[C@H](Nc1nc(Cl)nc2c1ncn2[C@H]1[C@H](O)[C@H](O)[C@]2(CO)C[C@H]12)C1CC1,,> 50,5.3,> 50,> 9.4,> 3.1
NC(=O)c1ncn([C@H]2[C@H](O)[C@H](O)[C@]3(CO)C[C@H]23)n1,> 50,> 50,> 50,> 50,,
O[C@@H]1[C@H](O)[C@@H]2C[C@@H]2[C@H]1n1cnc2c(NC(C3CC3)C3CC3)nc(I)nc21,> 50,50,> 50,> 50,,
COC(=O)c1cnn(-c2nc(NC(C3CC3)C3CC3)c3ncn([C@H]4[C@H](O)[C@H](O)[C@@H]5C[C@@H]54)c3n2)c1,> 50,50,> 50,> 50,,
CSc1nc(N[C@@H](C2CC2)C(C)(C)O)c2ccn([C@H]3[C@H](O)[C@H](O)[C@]4(CO)C[C@H]34)c2n1,> 100,> 100,> 100,> 100,,
CC(C)C(Nc1nc(Cl)nc2c1ncn2[C@H]1[C@H](O)[C@H](O)[C@]2(CO)C[C@H]12)C(C)C,32,> 100,32,> 100,,
O[C@@H]1[C@H](O)[C@@H]2C[C@@H]2[C@H]1n1cnc2c(NCC(C3CC3)C3CC3)nc(Cl)nc21,> 50,10,> 10,> 50,,
NCCCNC(=O)[C@@]12C[C@@H]1[C@@H](n1cnc3c(NC(C4CC4)C4CC4)nc(Cl)nc31)[C@H](O)[C@@H]2O,> 50,50,> 50,> 50,,
CC(C)(O)[C@@H](Nc1nc(Cl)nc2c1ncn2[C@H]1[C@H](O)[C@H](O)[C@]2(CO)C[C@H]12)C1CC1,> 100,> 100,> 100,> 100,,
O[C@@H]1[C@H](O)[C@@H]2C[C@@H]2[C@H]1n1ccc2c(NC(C3CC3)C3CC3)nc(I)nc21,> 100,44,32,100,1.4,
CC[C@@H](Nc1nc(SC)nc2c1ccn2[C@H]1[C@H](O)[C@H](O)[C@]2(CO)C[C@H]12)C1CC1,,> 50,2.3,> 50,> 22,> 3.1
CC(C)(O)[C@@H](Nc1nc(Cl)nc2c1ccn2[C@H]1[C@H](O)[C@H](O)[C@]2(CO)C[C@H]12)C1CC1,> 100,63,> 63,> 100,,
O[C@@H]1[C@H](O)[C@@H]2C[C@@H]2[C@H]1n1cnc2c(NC(C3CCC3)C3CCC3)nc(Cl)nc21,,17,> 17,16,,
Nc1nc(Cl)nc2c1ncn2[C@H]1[C@H](O)[C@H](O)[C@]2(CO)C[C@H]12,> 50,36,> 36,> 50,,
CC(C)(C)[C@H](Nc1nc(Cl)nc2c1ncn2[C@H]1[C@H](O)[C@H](O)[C@]2(CO)C[C@H]12)C1CC1,32,> 100,31,> 100,,
O=C(O)[C@@]12C[C@@H]1[C@@H](n1cnc3c(NC(C4CC4)C4CC4)nc(Cl)nc31)[C@H](O)[C@@H]2O,> 50,50,> 50,> 50,,

Structure (SMILES),EC50 [1] [µM],CC50 [2] [µM],EC50 [3] [µM],CC50 [4] [µM],selectivity ratio [5],selectivity ratio [6]
CC(C)[C@@H](Nc1nc(Cl)nc2c1ncn2[C@H]1[C@H](O)[C@H](O)[C@]2(CN)C[C@H]12)C1CC1,> 32,32,> 32,32,,
O[C@@H]1[C@H](O)[C@@H]2C[C@@H]2[C@H]1n1cnc2c(NCc3ccccc3F)nc(Cl)nc21,> 50,23,> 23,> 50,,
OC[C@@]12C[C@@H]1[C@@H](n1cnc3c(NC(C4CCC4)C4CCC4)nc(Cl)nc31)[C@H](O)[C@@H]2O,16,28,> 28,50,,3.1
O=C(O)c1cnn(-c2nc(NC(C3CC3)C3CC3)c3ncn([C@H]4[C@H](O)[C@H](O)[C@@H]5C[C@@H]54)c3n2)c1,> 50,50,> 50,> 50,,
CC(C)[C@H](Nc1nc(Cl)nc2c1ncn2[C@H]1[C@H](O)[C@H](O)[C@]2(CO)C[C@H]12)C1CC1,12,> 50,2.3,> 50,,
O[C@@H]1[C@H](O)[C@@H]2C[C@@H]2[C@H]1n1cnc2c(N[C@@H](CC3CC3)C3CC3)nc(Cl)nc21,18,7.6,> 7.6,> 50,,> 2.8
OC[C@@]12C[C@@H]1[C@@H](n1cnc3c(NCc4ccccc4)nc(Cl)nc31)[C@H](O)[C@@H]2O,> 100,> 100,> 100,> 100,,
O[C@@H]1[C@H](O)[C@@H]2C[C@@H]2[C@H]1n1cnc2c(N[C@H](CC3CC3)C3CC3)nc(Cl)nc21,21,9.9,8.1,,1.2,> 2.4
OC[C@@]12C[C@@H]1[C@@H](n1cnc3c(N[C@@H](C4CCC4)C4CC4)nc(Cl)nc31)[C@H](O)[C@@H]2O,16,13,8,,1.6,> 3.1
OC[C@H]1O[C@@H](n2cnc3c(NC(C4CCC4)C4CCC4)ncnc32)[C@H](O)[C@@H]1O,> 100,> 100,> 100,> 100,,
CSC[C@@]12C[C@@H]1[C@@H](n1cnc3c(N[C@H](C(C)C)C4CC4)nc(Cl)nc31)[C@H](O)[C@@H]2O,> 32,32,8.4,32,3.8,
CSc1nc(N[C@H](C(C)C)C2CC2)c2ncn([C@H]3[C@H](O)[C@H](O)[C@]4(CO)C[C@H]34)c2n1,,> 100,66,> 100,> 1.5,
O[C@@H]1[C@H](O)[C@@H]2C[C@@H]2[C@H]1n1cnc2c(NC(C3CC3)C3CC3)ncnc21,> 50,> 50,> 50,> 50,,
OC[C@H]1O[C@@H](n2cnc3c(NC(C4CC4)C4CC4)ncnc32)[C@H](O)[C@@H]1O,> 50,> 50,> 50,> 50,,
CCOC(=O)[C@@]12C[C@@H]1[C@@H](n1cnc3c(NC(C4CC4)C4CC4)nc(Cl)nc31)[C@H](O)[C@@H]2O,> 50,1.5,> 1.5,> 50,,
NCCNC(=O)[C@@]12C[C@@H]1[C@@H](n1cnc3c(NC(C4CC4)C4CC4)nc(Cl)nc31)[C@H](O)[C@@H]2O,> 50,50,> 50,> 50,,
OC[C@H]1O[C@@H](n2cnc3c(NC(C4CCC4)C4CCC4)nc(Cl)nc32)[C@H](O)[C@@H]1O,> 32,27,> 27,32,,
